According to paper PMC6032411, “Synthesis and Biological Evaluation of Zeise’s Salt Derivatives with Acetylsalicylic Acid Substructure” (International Journal of Molecular Sciences, 2018):

Legend:
[1] = system: MCF-7 breast cancer cells; test: Antiproliferative effects, crystal violet cell biomass assay, MCF-7; format: cell-based; conditions: for IC50: 72 h incubation, crystal violet
Method: (§1) The growth inhibitory effects of ASA, Zeise’s salt as well as the thereof derived complexes 1a–4a were investigated in vitro against the HT-29 and the MCF-7 cell lines. Thereby, an already published crystal violet assay was employed, in which the cell biomass reduced by the substances was determined as parameter. Cisplatin was applied as positive control.
(§2) The HT-29 colon carcinoma and the MCF-7 breast cancer cell lines were obtained from the cell line service (CLS, Eppelheim, Germany). The HT-29 and the MCF-7 cells were cultivated as a monolayer in Dulbecco’s Modified Eagle Medium (DMEM) containing glucose (4.5 g/L) and lacking phenol red (GE Healthcare, Little Chalfont, UK), supplemented with fetal calf serum (FCS; 10%; Biochrom) and L-glutamine (584 mg/L; GE Healthcare). The cells were cultured in a humidified atmosphere (5% CO2/95% air) at 37 °C and were passaged regularly twice a week. The cell lines were characterized by typing short tandem repeats and routinely monitored for mycoplasma infection.
(§3) The effects of the newly synthesized substances on the cell biomass were determined in vitro while employing a crystal violet assay. The testing was performed following a modified protocol, as previously published. Exponentially growing HT-29 and MCF-7 cells were seeded in 96-well tissue culture plates with a density of 3 × 10^3 and 2 × 10^3 cells, respectively, in 100 µL of completed DMEM per well in quadruples. The plates were kept in a humidified atmosphere (5% CO2/95% air) at 37 °C for 24 h prior to the addition of completed medium containing the vehicle DMF, the positive control Cisplatin, and the compounds to be tested, respectively. After 72 h of incubation, the medium was removed, the cells were washed with PBS and fixed using a solution of glutaraldehyde in PBS (1%, v/v). The cell biomass was examined by staining the chromatin of adherent cells with crystal violet, extraction of the stain with ethanol (70%, v/v) and following measurement of absorbance (λ = 590 nm). The cell viability is given as percentage of cell viability of the vehicle treated control, which was set to 100%. The IC50 values represent the mean ± standard error of mean of ≥2 independent experiments and they were calculated with Prism 7.0 (GraphPad, San Diego, CA, USA) using nonlinear regression and decadal logarithm of the inhibitor versus variable slope equation. The top constraint was set to 100%.

ovine COX-1 = target: T1, ovine COX-1 (Ovis aries, UniProt P05979); test: COX-1 isoenzyme inhibition (COX Inhibitor Screening Assay, enzyme immunoassay); format: biochemical; conditions: 10 µM, incubation 10 min, isolated enzyme
T1 construct: purchased Cayman Chemicals
T1 sequence (P05979 25-600): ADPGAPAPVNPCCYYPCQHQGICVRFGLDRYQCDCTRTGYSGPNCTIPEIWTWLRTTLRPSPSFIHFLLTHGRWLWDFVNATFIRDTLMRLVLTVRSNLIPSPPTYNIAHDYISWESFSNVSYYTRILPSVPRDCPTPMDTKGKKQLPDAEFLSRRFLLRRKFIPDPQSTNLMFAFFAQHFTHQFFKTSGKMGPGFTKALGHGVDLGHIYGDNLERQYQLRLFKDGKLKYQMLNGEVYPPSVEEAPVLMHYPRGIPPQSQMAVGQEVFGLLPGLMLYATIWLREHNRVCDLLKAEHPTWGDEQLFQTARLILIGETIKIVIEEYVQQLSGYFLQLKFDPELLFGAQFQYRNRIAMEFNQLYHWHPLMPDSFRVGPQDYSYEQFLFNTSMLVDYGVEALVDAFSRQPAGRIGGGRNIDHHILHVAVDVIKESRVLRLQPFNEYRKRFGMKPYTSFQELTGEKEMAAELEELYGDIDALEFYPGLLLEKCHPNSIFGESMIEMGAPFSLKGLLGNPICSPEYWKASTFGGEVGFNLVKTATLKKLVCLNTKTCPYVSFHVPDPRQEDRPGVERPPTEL
Method: (§4) The impact of the compounds (10 µM) to inhibit the isoenzymes COX-1 and COX-2, respectively, was investigated (Figure 5).
(§5) The inhibition of both isolated isoenzymes, ovine COX-1 and ovine COX-2, respectively, were investigated at a concentration of 10 µM of the respective substances while employing an enzyme immunoassay (COX Inhibitor Screening Assay, Cayman Chemicals, Ann Arbor, MI, USA). The conduction of the assay was performed following the manufacturer’s protocol. Thereby, the isoenzymes were incubated with the particular compounds for exactly 10 min. The values express the mean of duplicate determinations and they represent the mean ± standard deviation of ≥2 independent experiments. The untreated control was set to 0% inhibition.
(§6) Figure 5 Inhibition of isolated ovine COX-1 and COX-2. Values are given as % COX inhibition calculated from initial activity of vehicle treated enzyme and represent the mean ± standard deviation of ≥2 independent experiments.

[2] = system: HT-29 colon carcinoma cells; test: Antiproliferative effects, crystal violet cell biomass assay, HT-29; format: cell-based; conditions: for IC50: 72 h incubation, crystal violet
Method: as §1, §2, §3

ovine COX-2 = target: T2, ovine COX-2 (Ovis aries, UniProt P79208); test: COX-2 isoenzyme inhibition (COX Inhibitor Screening Assay, enzyme immunoassay); format: biochemical; conditions: for COX-2 inhibition: 10 µM, incubation 10 min, isolated enzyme
T2 construct: purchased Cayman Chemicals
T2 sequence (P79208 17-603): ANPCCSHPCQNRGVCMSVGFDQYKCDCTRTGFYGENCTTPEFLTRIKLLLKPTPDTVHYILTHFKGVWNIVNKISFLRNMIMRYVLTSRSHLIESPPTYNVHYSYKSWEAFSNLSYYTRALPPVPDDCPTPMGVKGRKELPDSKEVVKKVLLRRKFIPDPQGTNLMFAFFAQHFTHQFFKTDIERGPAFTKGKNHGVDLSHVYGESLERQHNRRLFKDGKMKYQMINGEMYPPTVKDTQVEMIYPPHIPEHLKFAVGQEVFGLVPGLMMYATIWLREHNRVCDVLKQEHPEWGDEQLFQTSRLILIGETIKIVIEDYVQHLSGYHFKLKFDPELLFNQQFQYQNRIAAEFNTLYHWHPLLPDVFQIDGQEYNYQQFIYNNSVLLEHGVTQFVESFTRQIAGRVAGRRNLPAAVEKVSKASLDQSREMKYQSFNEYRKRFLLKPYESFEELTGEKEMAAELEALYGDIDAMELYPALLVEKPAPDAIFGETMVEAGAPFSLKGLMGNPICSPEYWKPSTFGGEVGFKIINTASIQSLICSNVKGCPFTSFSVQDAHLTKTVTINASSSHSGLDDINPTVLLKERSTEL
Method: as §4, §5, §6

[3] = Stability in other media (aqueous conditions, cell culture medium, DMSO); format: physicochemical; conditions: degraded immediately after addition
[4] = set-up: method as in doi:10.1002/zaac.19603050315; conditions: degrades in a redox reaction building acetaldehyde and Pt(0); cited from earlier work
[5] = Evaluation of stability by capillary electrophoresis; format: physicochemical
Description: Capillary electrophoresis (CE) was employed in order to determine the stability of the anionic platinum(II) complexes in aqueous media. Therefore, a method was established that allowed the detection of the respective complex and possible degradation products in a short period of time (for further information on the setup see Section 4). Methanol was chosen as a non-coordinating co-solvent for the sample solutions (final amount of methanol: 50%) in order to guarantee the solubility of decomposition products. In contrast to HPLC analysis, it was possible to separate the platinum complex (tm = 6.3 min) from the free ligand (tm = 4.4 min) using a 50 mM sodium tetraborate solution (pH = 9.3) as the background electrolyte (temperature: 25 °C; UV-detection: 230 nm; capillary: fused silica 64.5 cm × 75 µm, effective length 56 cm; 20 kV). […] The reactions followed pseudo-first order kinetics (R^2 ≥ 0.99) under the experimental conditions that were implemented.
A 50 mM sodium tetraborate solution with a pH of 9.3 (adjusted with 1 M NaOH solution) was used as the background electrolyte (BGE). Prior to the first utilization new capillaries were washed with 1 M NaOH solution (45 min), water (45 min) and BGE (45 min). Samples were injected into the capillary via hydrodynamic mode (50 mbar for 2 s). The capillary was thermostated at 25 °C, whereas the autosampler was kept at 37 °C by an external water bath. The separation voltage was 20 kV and the detection wavelength was set to 230 nm. The required run time was 10 min. The capillary was flushed consecutively with 0.1 M NaOH solution (3 min), water (3 min), and BGE (5 min) before each measurement. For the purpose of stability testing, the complexes were dissolved in methanol and diluted 1:1 (v/v) with water, 1.8% aqueous NaCl solution, or double-concentrated PBS to a final concentration of 1 mM. Every experiment was performed in triplicate. The half-lives are presented as mean ± standard deviation. All of the samples, buffers, and washing solutions were membrane filtered (0.22 µm porosity) and degassed by ultrasonication prior to usage.

[6] = up to a concentration of 100 µM
[7] = methanol/water 1:1, 1 mM, 37 °C

Which results are given for CC(=O)Oc1ccccc1C(=O)O [ASA, acetylsalicylic acid]?
IC50 ([1]; Homo sapiens, MCF7): ≥ 50 µM; antiproliferative activity against MCF-7 [1, 6]: inactive; COX-1 inhibition (ovine COX-1): 29.2%; IC50 ([2]; Homo sapiens, HT-29): ≥ 50 µM; antiproliferative activity against HT-29 [2, 6]: inactive; inhibition at 10 µM (ovine COX-2; read-out: COX-2 inhibition): 1%

For N.N.[Cl][Pt][Cl] [Cisplatin, reference compound], which IC50 [1] is on record?
The IC50 was 3.7 ± 0.3 µM.

What about the IC50 [2] of the same molecule?
The IC50 was 2.6 ± 0.1 µM.

For C=C.[Cl-].[Cl-].[Cl-].[K+].[Pt+2] [Zeise’s salt, potassium trichlorido[ethylene]platinate(II)], which “stability in cell culture medium” value [3] is on record?
Its value is “not stable”.

What about the IC50 [1] of the same molecule?
Its IC50 is ≥ 50 µM.

What about the “stability under aqueous conditions” value [4] of the same molecule?
The value was “very unstable”.

And the COX-1 inhibition (ovine COX-1)?
Its COX-1 inhibition is 83.8%.

What about the IC50 [2] of the same molecule?
The IC50 was ≥ 50 µM.

What about the COX-2 inhibition (ovine COX-2) of the same molecule?
Its COX-2 inhibition is 11.3%.

Which IC50 [1] does the source give for “Potassium {trichlorido[η^2-(but-3-en-1-yl)-2-acetoxybenzoate]platinate(II)} [Compound 2a]” here?
The IC50 was 30.1 ± 1.5 µM.

And the COX-1 inhibition (ovine COX-1)?
The COX-1 inhibition was 70.0%.

What about the “recovery of the intact complex” value ([5]; 154 mM Cl− in 50% methanol/water, after 168 h) of the same molecule?
Its value is 80.3 ± 3.2%.

And the “half-live (τ1/2)” value ([5]; PBS pH 7.4 in methanol/water, degraded to Pt-Butene-SA)?
Its value is 7.95 ± 0.09 h.

What about the “half-live (τ1/2)” value [5, 7] of the same molecule?
The value was 69.6 ± 3.0 h.

And the IC50 [2]?
Its IC50 is 31.4 ± 0.4 µM.

What about the COX-2 inhibition (ovine COX-2) of the same molecule?
The COX-2 inhibition was 28.7%.

Which results are given for “Potassium {trichlorido[η^2-(hex-5-en-1-yl)-2-acetoxybenzoate]platinate(II)} [Compound 4a]”?
IC50 [1]: 43.7 ± 5.7 µM; COX-1 inhibition (ovine COX-1): 96.6%; half-live (τ1/2) [5, 7]: 55.4 ± 4.0 h; IC50 [2]: 41.4 ± 0.3 µM; COX-2 inhibition (ovine COX-2): 33.0%

Which IC50 [1] does the source give for “Potassium {trichlorido[η^2-(pent-4-en-1-yl)-2-acetoxybenzoate]platinate(II)} [Compound 3a]” here?
Its IC50 is 37.4 ± 2.5 µM.

And the COX-1 inhibition (ovine COX-1)?
The COX-1 inhibition was 93.8%.

And the “half-live (τ1/2)” value [5, 7]?
The value was 73.5 ± 4.7 h.

And the IC50 [2]?
Its IC50 is 44.2 ± 3.4 µM.

What about the COX-2 inhibition (ovine COX-2) of the same molecule?
The COX-2 inhibition was 15.3%.

Which IC50 [1] does the source give for “Potassium {trichlorido[η^2-(prop-2-en-1-yl)-2-acetoxybenzoate]platinate(II)} [Compound 1a]” here?
Its IC50 is ≥ 50 µM.

What about the COX-1 inhibition (ovine COX-1) of the same molecule?
The COX-1 inhibition was 67.3%.

And the stability in methanol ([5]; methanol, 48 h)?
Its stability in methanol is “stable”.

What about the “half-live (τ1/2)” value [5, 7] of the same molecule?
Its value is 0.595 ± 0.01 h.

And the IC50 [2]?
Its IC50 is 49.7 ± 1.8 µM.

What about the COX-2 inhibition (ovine COX-2) of the same molecule?
The COX-2 inhibition was 17.4%.
